The structures appear in SMILES notation.

The target in series [1] is Cytochrome P450 3A4 (Homo sapiens, UniProt P08684). To be noted: bti-tn-5b1-4. Also: in other assays of this panel Not Active means under 50% inhibition at 10 µM.
In series [2] the target is D(3) dopamine receptor (Homo sapiens, UniProt P35462). Briefly: DRUGMATRIX: Dopamine D3 radioligand binding (ligand: [3H] Spiperone). The series is classed as cell membranes, CHO, Membrane. To be noted: cho.
In series [3] the target is Insulin receptor (Rattus norvegicus, UniProt P15127). The format is cell membranes, Wistar, Liver, Membrane. Also: in other assays of this panel Not Active means under 50% inhibition at 10 µM.
Chain of Insulin receptor (P15127 27-759 limits assumed): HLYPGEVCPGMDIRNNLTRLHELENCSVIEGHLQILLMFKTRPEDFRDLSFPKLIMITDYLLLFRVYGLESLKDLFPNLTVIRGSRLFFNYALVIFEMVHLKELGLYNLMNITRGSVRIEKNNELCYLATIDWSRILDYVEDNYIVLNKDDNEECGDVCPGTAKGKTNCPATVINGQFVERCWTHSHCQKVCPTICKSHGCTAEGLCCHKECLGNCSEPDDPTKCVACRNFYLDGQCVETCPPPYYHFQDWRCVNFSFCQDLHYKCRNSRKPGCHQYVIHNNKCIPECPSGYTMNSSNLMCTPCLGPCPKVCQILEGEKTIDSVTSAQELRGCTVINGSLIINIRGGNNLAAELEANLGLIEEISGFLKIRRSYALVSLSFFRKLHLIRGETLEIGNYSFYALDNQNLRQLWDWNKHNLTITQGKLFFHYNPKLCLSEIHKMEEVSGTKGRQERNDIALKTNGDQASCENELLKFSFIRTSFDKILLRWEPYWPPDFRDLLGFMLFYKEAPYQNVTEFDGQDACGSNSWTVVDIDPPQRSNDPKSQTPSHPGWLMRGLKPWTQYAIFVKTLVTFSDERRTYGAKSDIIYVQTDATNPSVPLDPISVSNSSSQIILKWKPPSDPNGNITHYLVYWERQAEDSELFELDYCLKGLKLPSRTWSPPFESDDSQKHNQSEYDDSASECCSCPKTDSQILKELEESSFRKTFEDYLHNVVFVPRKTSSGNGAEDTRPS
Chain of Insulin receptor (P15127 764-1383 limits assumed): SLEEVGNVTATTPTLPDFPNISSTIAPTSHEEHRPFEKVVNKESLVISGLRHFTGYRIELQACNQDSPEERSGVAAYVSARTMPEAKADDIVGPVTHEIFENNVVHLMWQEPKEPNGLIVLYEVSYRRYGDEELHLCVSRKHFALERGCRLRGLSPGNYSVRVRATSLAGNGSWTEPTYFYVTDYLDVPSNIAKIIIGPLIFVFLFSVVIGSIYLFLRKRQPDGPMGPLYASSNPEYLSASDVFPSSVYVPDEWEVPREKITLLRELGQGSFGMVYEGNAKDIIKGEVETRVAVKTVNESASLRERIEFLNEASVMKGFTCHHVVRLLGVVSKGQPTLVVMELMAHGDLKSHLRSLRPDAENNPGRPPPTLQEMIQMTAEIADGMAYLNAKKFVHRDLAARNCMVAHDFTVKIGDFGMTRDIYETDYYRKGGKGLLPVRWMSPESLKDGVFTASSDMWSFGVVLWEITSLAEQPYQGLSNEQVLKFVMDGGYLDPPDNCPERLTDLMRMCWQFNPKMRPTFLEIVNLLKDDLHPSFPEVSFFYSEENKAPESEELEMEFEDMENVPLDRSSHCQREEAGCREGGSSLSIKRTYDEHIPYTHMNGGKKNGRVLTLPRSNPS
Series [4] in a line: DRUGMATRIX: beta-Lactamase enzyme inhibition (substrate: Nitrocefin). Details: species or system Bacillus cereus. To be noted: Not Active = under 50% inhibition at 10 µM.
The target of series [5] is T1, Adenosine receptor A3 (Homo sapiens, UniProt P0DMS8).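 Also: radioligand binding assay with AB-MECA serving as the labeled ligand; in other assays of this panel Not Active means under 50% inhibition at 10 µM.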
T1 sequence (P0DMS8 whole entry): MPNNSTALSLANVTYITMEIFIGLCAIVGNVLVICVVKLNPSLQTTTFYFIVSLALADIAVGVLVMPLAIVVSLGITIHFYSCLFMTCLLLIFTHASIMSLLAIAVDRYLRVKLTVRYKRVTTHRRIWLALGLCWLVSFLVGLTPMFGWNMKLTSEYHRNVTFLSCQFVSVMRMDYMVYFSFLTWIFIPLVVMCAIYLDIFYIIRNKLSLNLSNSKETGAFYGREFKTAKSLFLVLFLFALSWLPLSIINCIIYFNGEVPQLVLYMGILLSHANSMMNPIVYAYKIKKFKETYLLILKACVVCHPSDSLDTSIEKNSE
The series is classed as cell membranes, CHO-K1, Membrane. To be noted: cho-k1.

Series [6] has as its target Acetylcholinesterase (Homo sapiens, UniProt P22303). Briefly: DRUGMATRIX: Acetylcholinesterase enzyme inhibition (substrate: acetylthiocholine). The format is cell-based, HEK293. To be noted: hek293; Not Active = under 50% inhibition at 10 µM.
Series [7] can be described thus: DRUGMATRIX: Potassium Channel [KATP] radioligand binding (ligand: [3H] Glyburide). The series is classed as cell membranes, Membrane. To be noted: hit-t15; Not Active = under 50% inhibition at 10 µM.
Series [8] addresses Substance-P receptor (Homo sapiens, UniProt P25103). The format is cell membranes, CHO, Membrane. The conditions noted are these: cho.
Series [9] can be described thus: DRUGMATRIX: Phosphodiesterase PDE4 enzyme inhibition (substrate: [3H]cAMP + cAMP). The conditions noted are these: u-937; Not Active = under 50% inhibition at 10 µM.
A short description of series [10]: DRUGMATRIX: ATPase, Na+/K+ enzyme inhibition (substrate: ATP). To be noted: Not Active = under 50% inhibition at 10 µM. The series is classed as tissue-based, Sus scrofa, Heart.
The target of series [11] is T2, Neuropeptide Y receptor type 2 (Homo sapiens, UniProt P49146). Also: in other assays of this panel Not Active means under 50% inhibition at 10 µM.
T2 sequence (P49146 whole entry): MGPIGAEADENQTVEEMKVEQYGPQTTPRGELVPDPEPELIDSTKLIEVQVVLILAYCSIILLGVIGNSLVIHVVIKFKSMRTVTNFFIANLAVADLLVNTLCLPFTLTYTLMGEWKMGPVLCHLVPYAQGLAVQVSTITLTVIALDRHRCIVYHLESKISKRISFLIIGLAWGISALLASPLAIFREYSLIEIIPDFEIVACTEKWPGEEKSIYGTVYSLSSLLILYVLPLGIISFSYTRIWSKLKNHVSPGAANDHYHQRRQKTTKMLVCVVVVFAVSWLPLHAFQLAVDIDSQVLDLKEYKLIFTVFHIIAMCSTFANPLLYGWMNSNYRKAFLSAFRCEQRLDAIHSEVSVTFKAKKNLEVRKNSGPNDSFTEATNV
The series is classed as cell membranes, Membrane. To be noted: kan-ts.

Series [12] concerns the target Melanocortin receptor 4 (Homo sapiens, UniProt P32245). The format is cell membranes, Membrane. To be noted: hek293. Also: in other assays of this panel Not Active means under 50% inhibition at 10 µM.
Series [13] has as its target Cannabinoid receptor 1 (Homo sapiens, UniProt P21554). The format is cell membranes, Membrane. The conditions noted are these: chem-1. Also: in other assays of this panel Not Active means under 50% inhibition at 10 µM.
Series [14] has as its target Matrix metalloproteinase-9 (Homo sapiens, UniProt P14780). The format is cell-based.
Series [15] in a line: DRUGMATRIX: Calcium Channel Type L, Dihydropyridine radioligand binding (ligand: [3H] Nitrendipine). To be noted: Not Active = under 50% inhibition at 10 µM. The series is classed as cell membranes, Rattus norvegicus, Wistar, Cerebral cortex, Membrane.

Chain of Melanocortin receptor 4 (P32245 whole entry): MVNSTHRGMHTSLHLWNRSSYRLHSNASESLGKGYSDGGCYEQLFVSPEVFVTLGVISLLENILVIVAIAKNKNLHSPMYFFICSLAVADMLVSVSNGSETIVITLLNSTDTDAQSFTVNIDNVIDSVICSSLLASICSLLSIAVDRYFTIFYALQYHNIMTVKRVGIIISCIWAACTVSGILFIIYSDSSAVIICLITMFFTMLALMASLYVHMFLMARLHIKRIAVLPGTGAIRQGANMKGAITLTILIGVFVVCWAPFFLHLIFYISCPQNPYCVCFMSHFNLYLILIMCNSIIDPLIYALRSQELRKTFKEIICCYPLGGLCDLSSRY
Chain of Cytochrome P450 3A4 (P08684 whole entry): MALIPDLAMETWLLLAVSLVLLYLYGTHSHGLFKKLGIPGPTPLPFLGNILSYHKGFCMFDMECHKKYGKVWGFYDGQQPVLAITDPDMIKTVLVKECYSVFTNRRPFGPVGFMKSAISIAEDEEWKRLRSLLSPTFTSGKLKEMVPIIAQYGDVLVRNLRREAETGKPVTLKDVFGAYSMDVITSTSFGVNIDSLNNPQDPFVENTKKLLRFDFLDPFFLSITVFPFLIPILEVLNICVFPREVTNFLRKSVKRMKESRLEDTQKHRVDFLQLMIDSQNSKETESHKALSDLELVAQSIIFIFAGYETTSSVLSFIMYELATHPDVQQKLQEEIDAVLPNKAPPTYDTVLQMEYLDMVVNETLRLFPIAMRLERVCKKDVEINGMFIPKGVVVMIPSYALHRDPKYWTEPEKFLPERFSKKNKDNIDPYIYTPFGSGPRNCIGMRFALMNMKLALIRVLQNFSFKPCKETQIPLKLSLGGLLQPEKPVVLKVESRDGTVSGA
Chain of Matrix metalloproteinase-9 (P14780 whole entry): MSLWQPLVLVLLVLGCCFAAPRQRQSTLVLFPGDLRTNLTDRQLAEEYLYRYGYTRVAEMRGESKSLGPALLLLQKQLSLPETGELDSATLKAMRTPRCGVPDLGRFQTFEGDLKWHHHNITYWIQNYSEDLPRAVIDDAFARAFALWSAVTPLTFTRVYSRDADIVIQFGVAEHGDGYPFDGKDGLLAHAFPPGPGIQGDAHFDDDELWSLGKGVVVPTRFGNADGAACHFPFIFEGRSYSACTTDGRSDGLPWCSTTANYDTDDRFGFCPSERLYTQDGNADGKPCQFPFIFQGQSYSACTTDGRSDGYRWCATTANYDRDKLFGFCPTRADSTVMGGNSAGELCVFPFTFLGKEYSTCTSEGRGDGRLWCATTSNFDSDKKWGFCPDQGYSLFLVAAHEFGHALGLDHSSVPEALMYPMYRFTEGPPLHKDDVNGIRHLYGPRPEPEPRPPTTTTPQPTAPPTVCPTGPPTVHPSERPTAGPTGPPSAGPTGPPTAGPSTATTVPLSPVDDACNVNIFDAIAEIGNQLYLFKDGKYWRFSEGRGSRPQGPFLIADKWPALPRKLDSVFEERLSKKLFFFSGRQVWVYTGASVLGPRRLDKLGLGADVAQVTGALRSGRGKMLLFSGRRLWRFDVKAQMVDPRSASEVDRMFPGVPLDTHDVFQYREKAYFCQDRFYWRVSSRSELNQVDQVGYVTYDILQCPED
Chain of Acetylcholinesterase (P22303 whole entry): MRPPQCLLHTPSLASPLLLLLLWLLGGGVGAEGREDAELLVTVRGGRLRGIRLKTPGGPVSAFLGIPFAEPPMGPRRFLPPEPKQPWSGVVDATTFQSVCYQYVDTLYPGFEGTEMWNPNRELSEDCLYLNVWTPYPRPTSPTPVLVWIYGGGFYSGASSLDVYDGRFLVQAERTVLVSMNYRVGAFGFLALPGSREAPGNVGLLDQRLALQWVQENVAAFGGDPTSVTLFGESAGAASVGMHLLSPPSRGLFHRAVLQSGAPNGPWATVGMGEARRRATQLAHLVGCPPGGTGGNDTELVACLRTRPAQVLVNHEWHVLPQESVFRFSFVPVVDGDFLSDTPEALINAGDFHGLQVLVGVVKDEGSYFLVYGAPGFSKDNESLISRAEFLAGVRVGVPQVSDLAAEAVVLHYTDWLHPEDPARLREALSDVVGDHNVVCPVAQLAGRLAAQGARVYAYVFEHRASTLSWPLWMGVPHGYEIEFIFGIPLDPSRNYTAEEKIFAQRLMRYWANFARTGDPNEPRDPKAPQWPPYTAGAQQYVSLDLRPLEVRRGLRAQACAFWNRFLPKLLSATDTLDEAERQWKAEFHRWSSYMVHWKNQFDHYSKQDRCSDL
Chain of Substance-P receptor (P25103 whole entry): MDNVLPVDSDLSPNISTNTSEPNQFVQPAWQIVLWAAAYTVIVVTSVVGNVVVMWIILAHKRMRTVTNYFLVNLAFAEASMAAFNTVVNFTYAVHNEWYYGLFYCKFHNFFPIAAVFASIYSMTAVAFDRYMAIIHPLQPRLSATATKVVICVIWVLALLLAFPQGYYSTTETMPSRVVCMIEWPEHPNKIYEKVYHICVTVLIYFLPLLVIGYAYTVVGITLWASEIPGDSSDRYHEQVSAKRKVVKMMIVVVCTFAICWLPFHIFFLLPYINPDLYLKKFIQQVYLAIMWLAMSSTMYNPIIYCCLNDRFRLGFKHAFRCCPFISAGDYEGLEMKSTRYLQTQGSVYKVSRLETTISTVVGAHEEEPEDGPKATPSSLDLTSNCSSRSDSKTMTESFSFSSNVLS
Chain of Cannabinoid receptor 1 (P21554 whole entry): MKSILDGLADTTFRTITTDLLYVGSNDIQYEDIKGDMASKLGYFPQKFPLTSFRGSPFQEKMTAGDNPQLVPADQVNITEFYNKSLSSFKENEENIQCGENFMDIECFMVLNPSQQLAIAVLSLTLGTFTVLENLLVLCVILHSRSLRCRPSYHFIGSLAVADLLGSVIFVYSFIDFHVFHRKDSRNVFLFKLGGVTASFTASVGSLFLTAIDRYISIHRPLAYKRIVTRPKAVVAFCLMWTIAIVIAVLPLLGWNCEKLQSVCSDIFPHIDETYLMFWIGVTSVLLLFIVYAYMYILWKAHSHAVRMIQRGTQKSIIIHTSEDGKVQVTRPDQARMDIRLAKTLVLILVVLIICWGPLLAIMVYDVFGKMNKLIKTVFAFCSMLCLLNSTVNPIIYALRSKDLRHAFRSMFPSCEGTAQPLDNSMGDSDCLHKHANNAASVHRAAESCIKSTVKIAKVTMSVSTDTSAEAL
Chain of D(3) dopamine receptor (P35462 whole entry): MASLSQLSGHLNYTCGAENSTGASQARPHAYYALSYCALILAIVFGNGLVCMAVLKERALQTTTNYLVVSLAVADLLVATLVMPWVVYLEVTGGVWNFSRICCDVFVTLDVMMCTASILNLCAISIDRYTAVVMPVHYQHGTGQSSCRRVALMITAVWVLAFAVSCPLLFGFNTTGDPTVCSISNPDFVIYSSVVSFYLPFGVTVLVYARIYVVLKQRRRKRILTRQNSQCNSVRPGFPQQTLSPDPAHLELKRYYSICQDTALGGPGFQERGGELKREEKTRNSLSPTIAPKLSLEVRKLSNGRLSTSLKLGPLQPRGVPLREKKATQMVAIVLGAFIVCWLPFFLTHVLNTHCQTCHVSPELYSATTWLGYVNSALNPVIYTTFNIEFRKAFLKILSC

In general, IC50 refers to the point on the concentration scale where inhibition reaches its midpoint. Broadly, the Ki is the equilibrium dissociation constant of an inhibitor or competing ligand from its target. Consider `Fc1ccc([C@@H]2CCNC[C@H]2COc2ccc3c(c2)OCO3)cc1` [PAROXETINE], for which the IC50 result in series [1], in [2], in series [3], in [4], in [5] and in series [6] was “Not Active” throughout. For the same compound, the concentration for half-maximal inhibition (IC50) entry in series [7], in series [8], in [9], in [10], in [11] and in series [12] was “Not Active” in each case. Besides, the IC50 result in series [13] is “Not Active”; in series [14], “Not Active”; in series [15] (read-out: IC50), 1480 nM. Further, the inhibitory constant (Ki) entry is “Not Active” in series [1]; “Not Active” in series [4]; “Not Active” in [7]; “Not Active” in series [9]; “Not Active” in [10]; 949 nM in series [15] (read-out: Ki).

For the compound `CC(C)(S)[C@@H](N)C(=O)O` [PENICILLAMINE], the IC50 entry in series [1], in series [2], in series [3], in [4], in series [5] and in series [6] was “Not Active” each time. For the same compound, the IC50 result in [7], in series [8], in series [9], in [10], in series [11] and in series [12] was “Not Active” throughout. In addition, the IC50 result in series [13], in series [14] and in [15] was “Not Active” each time. Further, the Ki entry in [1], in [4], in series [7], in series [9], in series [10] and in [15] was “Not Active” each time.

Turning to `CC(=O)CCCCn1c(=O)c2c(ncn2C)n(C)c1=O` [PENTOXIFYLLINE], the IC50 result in series [1], in series [2], in [3], in [4], in [5] and in series [6] was “Not Active” each time. Moreover, the IC50 result in [7], in series [8], in series [9], in series [10], in series [11] and in [12] was “Not Active” in each case. In addition, the IC50 result in series [13], in [14] and in series [15] was “Not Active” in each case. Also, the Ki entry in [1], in [4], in series [7], in series [9], in series [10] and in series [15] was “Not Active” in each case.

On to `O=C1NC(=O)C(c2ccccc2)(c2ccccc2)N1` [PHENYTOIN], for which the IC50 entry in [1], in series [2], in series [3], in series [4], in series [5] and in series [6] was “Not Active” throughout. Also, the IC50 result in series [7], in series [8], in [9], in series [10], in series [11] and in series [12] was “Not Active” each time. The IC50 entry in series [13], in series [14] and in [15] was “Not Active” each time. Moreover, the Ki entry in [1], in [4], in [7], in series [9], in [10] and in series [15] was “Not Active” each time.

`C=C(C)[C@@H]1[C@H]2OC(=O)[C@@H]1[C@]1(O)C[C@H]3O[C@]34C(=O)O[C@H]2[C@]14C` [PICROTOXININ]: the IC50 result in [1], in series [2], in series [3], in series [4], in series [5] and in series [6] was “Not Active” in each case. The IC50 entry in series [7], in [8], in series [9], in series [10], in [11] and in series [12] was “Not Active” throughout. The IC50 entry in series [13], in series [14] and in series [15] was “Not Active” throughout. Also, the Ki result in series [1], in series [4], in series [7], in [9], in [10] and in series [15] was “Not Active” in each case.

Regarding `CN1C(C(=O)Nc2ccccn2)=C(O)c2ccccc2S1(=O)=O` [PIROXICAM], the IC50 entry in [1], in series [2], in series [3], in series [4], in [5] and in series [6] was “Not Active” each time. Moreover, the IC50 result in [7], in series [8], in [9], in series [10], in [11] and in series [12] was “Not Active” each time. The half-maximal inhibitory concentration (IC50) result in series [13], in [14] and in [15] was “Not Active” each time. Moreover, the Ki result in series [1], in series [4], in series [7], in series [9], in [10] and in [15] was “Not Active” throughout.

In the case of `CCC1(c2ccccc2)C(=O)NCNC1=O` [PRIMIDONE], the 50% inhibitory concentration (IC50) entry in series [1], in [2], in series [3], in series [4], in series [5] and in series [6] was “Not Active” throughout. In addition, the IC50 entry in series [7], in series [8], in [9], in series [10], in series [11] and in series [12] was “Not Active” throughout. For the same compound, the IC50 result in series [13], in series [14] and in series [15] was “Not Active” each time. Further, the Ki entry in series [1], in series [4], in series [7], in [9], in [10] and in series [15] was “Not Active” throughout.

The values above are taken from ChEMBL document CHEMBL1909046, “DrugMatrix in vitro pharmacology data”.
